{"source": "patent US20070197513A1", "about": "“Ion channel modulators” (priority 2004, published 2007)", "test_system": "calcium channel (e.g., L-type, N-type, etc.) current", "assay": "HEK assay: whole-cell voltage clamp in transiently transfected HEK-293T/17 cells", "format": "cell-based", "settings": "patch clamp, holding potential −100 mV, steps to about +10 mV", "method": "HEK-293T/17 cells are transiently transfected in a similar manner as described in FuGENE 6 Package Insert Version 7, April 2002, Roche Applied Science, Indianapolis, Ind. The cells are plated at 2.5×10^5 cells in 2 mL in a 6-well plate in incubator for one night and achieve a 30 40% confluence. In a small sterile tube, add sufficient serum-free medium as diluent for FuGENE Transfection Reagent (Roche Applied Science, Indianapolis, Ind.), to a total volume of 100 μL. Add 3 μL of FuGENE 6 Reagent directly into this medium. The mixture is tapped gently to mix. 2 μg of DNA solution (0.8-2.0 μg/μL) is added to the prediluted FuGENE 6 Reagent from above. The DNA/Fugene 6 mixture is gently pipeted to mix the contents and incubated for about 15 minutes at room temperature. The complex mixture is then added to the HEK-293T/17 cells, distributing it around the well, and swirled to ensure even dispersal. The cells are returned to the incubator for 24 hrs. The transfected cells are then replated at density 2.5×10^5 in a 35 mm dish with 5 glass coverslips and grow in low serum(1%) media for 24 hrs. Coverslips with isolated cells are then transferred into chamber and calcium channel ([…].) current or other currents for counter screening are recorded from the transiently transfected HEK-293T/17 cells. The whole-cell voltage clamp configuration of the patch clamp technique is employed to evaluate voltage-dependent calcium currents essentially as described by Thompson and Wong (1991) J. Physiol., 439: 671-689. […] Table 3 contains IC50's for representative compounds.", "note": "pIC50: −log10 of the molar value. Read-outs that look alike come from different tables or passages of the source."}
{"smiles": "COc1ccccc1-c1nc(CCN(C)c2ccc(F)cc2)cn1-c1ccc(Cl)cc1", "note": "[Compound 1]", "values": [{"measurement": "pIC50", "result": 7.34}]}
{"smiles": "COc1ccccc1-c1nc(Cc2nc3ccccc3[nH]2)cn1-c1ccc(Cl)cc1", "note": "[Compound 2, 2-[1-(4-Chloro-phenyl)-2-(2-methoxy-phenyl)-1H-imidazol-4-ylmethyl]-1H-benzoimidazole]", "values": [{"measurement": "pIC50", "setting": "read-out: IC50", "result": 6.76}]}
{"smiles": "COc1ccccc1-c1nc(CCN2CCCC2)cn1-c1ccc(Cl)cc1", "note": "[Compound 6]", "values": [{"measurement": "pIC50", "setting": "read-out: IC50", "result": 6.00}]}
